In patent US20210253575A1, “PYRROLIDINE AMINE COMPOUNDS FOR THE TREATMENT OF AUTOIMMUNE DISEASE” (Hoffmann-La Roche Inc., priority 2018, published 2021):

Biological target: T1, human TLR8 (Homo sapiens, UniProt Q9NR97)
T1 sequence (Q9NR97 27-1041): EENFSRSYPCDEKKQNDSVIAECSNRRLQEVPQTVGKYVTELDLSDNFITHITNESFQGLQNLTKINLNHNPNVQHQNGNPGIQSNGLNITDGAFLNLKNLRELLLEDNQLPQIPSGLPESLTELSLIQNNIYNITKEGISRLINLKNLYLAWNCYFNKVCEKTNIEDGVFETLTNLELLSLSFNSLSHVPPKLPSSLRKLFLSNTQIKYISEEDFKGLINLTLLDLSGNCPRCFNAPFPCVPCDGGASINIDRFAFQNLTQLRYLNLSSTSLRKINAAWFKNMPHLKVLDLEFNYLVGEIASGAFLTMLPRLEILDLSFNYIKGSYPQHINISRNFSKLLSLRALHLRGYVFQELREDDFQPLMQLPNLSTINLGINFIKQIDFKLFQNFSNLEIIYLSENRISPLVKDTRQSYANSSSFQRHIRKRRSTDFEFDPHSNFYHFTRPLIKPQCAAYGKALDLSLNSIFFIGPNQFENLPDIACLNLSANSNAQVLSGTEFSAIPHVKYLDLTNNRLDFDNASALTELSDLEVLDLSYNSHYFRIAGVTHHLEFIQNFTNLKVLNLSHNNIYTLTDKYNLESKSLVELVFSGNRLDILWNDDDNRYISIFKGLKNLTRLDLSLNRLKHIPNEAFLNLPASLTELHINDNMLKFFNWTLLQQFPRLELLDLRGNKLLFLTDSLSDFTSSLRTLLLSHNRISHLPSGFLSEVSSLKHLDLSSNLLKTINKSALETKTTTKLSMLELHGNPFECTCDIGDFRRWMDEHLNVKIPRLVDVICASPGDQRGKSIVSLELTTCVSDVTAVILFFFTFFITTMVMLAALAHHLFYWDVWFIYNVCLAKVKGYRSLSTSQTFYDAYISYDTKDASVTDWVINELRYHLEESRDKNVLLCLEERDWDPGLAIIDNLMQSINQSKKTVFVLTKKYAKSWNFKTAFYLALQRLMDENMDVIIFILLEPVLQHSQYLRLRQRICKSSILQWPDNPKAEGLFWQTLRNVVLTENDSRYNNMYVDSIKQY
Experiment: HEK293-Blue-hTLR-8 cells assay (SEAP reporter, R848 stimulation)
Format: cell-based
Settings: HEK293-Blue-hTLR8 cells, R848 ligand, 20 hrs incubation
Description: The following tests were carried out in order to determine the activity of the compounds of formula (I) in HEK293-Blue-hTLR-7/8/9 cells assay.
HEK293-Blue-hTLR-8 Cells Assay:
A stable HEK293-Blue-hTLR-8 cell line was purchased from InvivoGen (Cat. #: hkb-htlr8, San Diego, Calif., USA). These cells were originally designed for studying the stimulation of human TLR8 by monitoring the activation of NF-κB. A SEAP (secreted embryonic alkaline phosphatase) reporter gene was placed under the control of the IFN-β minimal promoter fused to five NF-κB and AP-1-binding sites. The SEAP was induced by activating NF-κB and AP-1 via stimulating HEK-Blue hTLR8 cells with TLR8 ligands. Therefore the reporter expression was declined by TLR8 antagonist under the stimulation of a ligand, such as R848, for incubation of 20 hrs. The cell culture supernatant SEAP reporter activity was determined using QUANTI-Blue™ kit (Cat. #: rep-qb1, Invivogen, San Diego, Ca, USA) at a wavelength of 640 nm, a detection medium that turns purple or blue in the presence of alkaline phosphatase.
HEK293-Blue-hTLR8 cells were incubated at a density of 250,000˜450,000 cells/mL in a volume of 170 μL in a 96-well plate in Dulbecco's Modified Eagle's medium (DMEM) containing 4.5 g/L glucose, 50 U/mL penicillin, […], […], 2 mM L-glutamine, 10% (v/v) heat-inactivated fetal bovine serum with addition of 20 μL test compound in a serial dilution in the presence of final DMSO at 1% and 10 μL of 60 uM R848 in above DMEM, perform incubation under 37° C. in a CO2 incubator for 20 hrs. Then 20 μL of the supernatant from each well was incubated with 180 μL Quanti-blue substrate solution at 37° C. for 2 hrs and the absorbance was read at 620-655 nm using a spectrophotometer. The signalling pathway that TLR8 activation leads to downstream NF-κB activation has been widely accepted, and therefore similar reporter assay was modified for evaluating TLR8 antagonist.

SMILES | IC50 [nM]
N#Cc1ccc(N2CC(CN3CCC4(CCNCC4)CC3)C3(CC3)C2)c2nccnc12 (centres unmarked) [Example 16, 8-[7-(3,9-Diazaspiro[5.5]undecan-3-ylmethyl)-5-azaspiro[2.4]heptan-5-yl]quinoxaline-5-carbonitrile] | 133
C[C@H]1CN(c2ccc(C#N)c3nccnc23)C[C@@H]1CN1CCC2(CCNCC2)CC1 [Example 17, 8-[(3S,4R)-3-(3,9-diazaspiro[5.5]undecan-3-ylmethyl)-4-methyl-pyrrolidin-1-yl]quinoxaline-5-carbonitrile] | 65
N#Cc1ccc(N2CC(CN3C[C@H]4CNC[C@H]4C3)C3(CC3)C2)c2nccnc12 (stereo partly drawn) [Example 18, 8-[7-[[(3aR,6aS)-2,3,3a,4,6,6a-hexahydro-H-pyrrolo[3,4-c]pyrrol-5-yl]methyl]-5-azaspiro[2.4]heptan-5-yl]quinoxaline-5-carbonitrile] | 82
FC(F)(F)c1ccc(N2CC(CN3CCNCC3)C3(CC3)C2)c2nccnc12 (centres unmarked) [Example 20, 5-[7-(Piperazin-1-ylmethyl)-5-azaspiro[2.4]heptan-5-yl]-8-(trifluoromethyl)quinoxaline] | 68
N#Cc1ccc(N2CC(CN3CCC4(CCCNC4)C3)C3(CC3)C2)c2nccnc12 (centres unmarked) [Example 22, 8-[7-(2,9-Diazaspiro[4.5]decan-2-ylmethyl)-5-azaspiro[2.4]heptan-5-yl]quinoxaline-5-carbonitrile] | 79
C[C@H]1CN(c2ccc(C#N)c3ncccc23)C[C@@H]1CN1CCC2(CCNCC2)CC1 [Example 23, 5-[(3S,4R)-3-(3,9-diazaspiro[5.5]undecan-3-ylmethyl)-4-methyl-pyrrolidin-1-yl]quinoline-8-carbonitrile] | 266
N#Cc1ccc(N2CC(CN3CC4(CCCNC4)C3)C3(CC3)C2)c2nccnc12 (centres unmarked) [Example 24, 8-[7-(2,8-Diazaspiro[3.5]nonan-2-ylmethyl)-5-azaspiro[2.4]heptan-5-yl]quinoxaline-5-carbonitrile] | 63
N#Cc1ccc(N2CC(CN3C4CCC3CC(N)C4)C3(CC3)C2)c2nccnc12 (centres unmarked) [Example 25, 8-[7-[(3-Amino-8-azabicyclo[3.2.1]octan-8-yl)methyl]-5-azaspiro[2.4]heptan-5-yl]quinoxaline-5-carbonitrile] | 108
N#Cc1ccc(N2C[C@H](CN3CCC(N)CC3)[C@@H](C(F)(F)F)C2)c2nccnc12 [Example 26, 8-[(3S,4R)-3-[(4-Amino-1-piperidyl)methyl]-4-(trifluoromethyl)pyrrolidin-1-yl]quinoxaline-5-carbonitrile] | 21
C[C@H]1CN(c2ccc(C#N)c3nccnc23)C[C@@H]1CN1CCC2(CCNC2)C1 (stereo partly drawn) [Example 30, 8-[(3S,4R)-3-(2,7-diazaspiro[4.4]nonan-2-ylmethyl)-4-methyl-pyrrolidin-1-yl]quinoxaline-5-carbonitrile] | 72
FC(F)(F)c1ccc(N2CC(CN3CCC4(CCNCC4)CC3)C3(CC3)C2)c2nccnc12 (centres unmarked) [Example 31, 3-[[5-[8-(Trifluoromethyl)quinoxalin-5-yl]-5-azaspiro[2.4]heptan-7-yl]methyl]-3,9-diazaspiro[5.5]undecane] | 418
N#Cc1ccc(N2CC(CN3CCC4(CCNCC4)C3)C3(CC3)C2)c2nccnc12 (centres unmarked) [Example 32, 8-[7-(2,8-Diazaspiro[4.5]decan-2-ylmethyl)-5-azaspiro[2.4]heptan-5-yl]quinoxaline-5-carbonitrile] | 111
C[C@H]1CN(c2ccc(C#N)c3ncccc23)C[C@@H]1CN1CCC2(CCNC2)C1 (stereo partly drawn) [Example 35, 5-[(3S,4R)-3-(2,7-diazaspiro[4.4]nonan-2-ylmethyl)-4-methyl-pyrrolidin-1-yl]quinoline-8-carbonitrile] | 245
N#Cc1ccc(N2CCC(CN3CCC4(CCNCC4)CC3)C2)c2nccnc12 (centres unmarked) [Example 37, 8-[3-(3,9-Diazaspiro[5.5]undecan-3-ylmethyl)pyrrolidin-1-yl]quinoxaline-5-carbonitrile] | 531
N#Cc1ccc(N2CC(CNC3CCCNCC3)C3(CC3)C2)c2nccnc12 (centres unmarked) [Example 39, 8-[7-[(Azepan-4-ylamino)methyl]-5-azaspiro[2.4]heptan-5-yl]quinoxaline-5-carbonitrile] | 132
C[C@@H]1CN(c2ccc(C(F)(F)F)c3nccnc23)C[C@H]1CNC1CCCNCC1 (some centres unmarked) [Example 40] | 742
FC(F)(F)c1ccc(N2CC(CN3C[C@H]4CNC[C@H]4C3)C3(CC3)C2)c2nccnc12 (stereo partly drawn) [Example 41, 5-[7-[[(3aR,6aS)-2,3,3a,4,6,6a-hexahydro-H-pyrrolo[3,4-c]pyrrol-5-yl]methyl]-5-azaspiro[2.4]heptan-5-yl]-8-(trifluoromethyl)quinoxaline] | 357
N#Cc1ccc(N2CC(CN3CC4(CC(N)C4)C3)C3(CC3)C2)c2nccnc12 (centres unmarked) [Example 42, 8-[7-[(6-Amino-2-azaspiro[3.3]heptan-2-yl)methyl]-5-azaspiro[2.4]heptan-5-yl]quinoxaline-5-carbonitrile] | 161
N#Cc1ccc(N2CC(CN3CCC4(CCNC4)C3)C3(CC3)C2)c2cccnc12 (centres unmarked) [Example 43, 5-[7-(2,7-Diazaspiro[4.4]nonan-2-ylmethyl)-5-azaspiro[2.4]heptan-5-yl]quinoline-8-carbonitrile] | 718
N#Cc1ccc(N2C[C@H](CN3CCC4(CCCNC4)CC3)[C@@H](C(F)(F)F)C2)c2nccnc12 [Example 45, 8-[(3S,4R)-3-(2,9-diazaspiro[5.5]undecan-9-ylmethyl)-4-(trifluoromethyl)pyrrolidin-1-yl]quinoxaline-5-carbonitrile] | 32
N#Cc1ccc(N2C[C@H](CN3CCC4(CCNCC4)C3)[C@@H](C(F)(F)F)C2)c2nccnc12 [Example 46, 8-[(3S,4R)-3-(2,8-diazaspiro[4.5]decan-2-ylmethyl)-4-(trifluoromethyl)pyrrolidin-1-yl]quinoxaline-5-carbonitrile] | 67
N#Cc1ccc(N2C[C@H](CN3CC4(CC(N)C4)C3)[C@@H](C(F)(F)F)C2)c2nccnc12 [Example 47, 8-[(3S,4R)-3-[(6-amino-2-azaspiro[3.3]heptan-2-yl)methyl]-4-(trifluoromethyl)pyrrolidin-1-yl]quinoxaline-5-carbonitrile] | 74
N#Cc1ccc(N2C[C@H](CN3CC4(CCNCC4)C3)[C@@H](C(F)(F)F)C2)c2nccnc12 [Example 48, 8-[(3S,4R)-3-(2,7-diazaspiro[3.5]nonan-2-ylmethyl)-4-(trifluoromethyl)pyrrolidin-1-yl]quinoxaline-5-carbonitrile] | 37
N#Cc1ccc(N2CC(CN3CCC4(CC3)CNCCO4)C3(CC3)C2)c2nccnc12 (centres unmarked) [Example 49, 8-[7-(1-Oxa-4,9-diazaspiro[5.5]undecan-9-ylmethyl)-5-azaspiro[2.4]heptan-5-yl]quinoxaline-5-carbonitrile] | 24
N#Cc1ccc(N2CC(CN3CC4CCNCC43)C3(CC3)C2)c2nccnc12 (centres unmarked) [Example 50, 8-[7-(3,8-Diazabicyclo[4.2.0]octan-8-ylmethyl)-5-azaspiro[2.4]heptan-5-yl]quinoxaline-5-carbonitrile] | 38
N#Cc1ccc(N2C[C@H](CN3CCC(N)CC3)[C@@H](C(F)(F)F)C2)c2nccnc12 [Example 51, 8-[(3S,4R)-3-[(4-amino-1-piperidyl)methyl]-4-(trifluoromethyl)pyrrolidin-1-yl]quinoxaline-5-carbonitrile] | 57
